Experimental data taken from patent US20080090805A1, “CB-1 MODULATING COMPOUNDS AND THEIR USE” (ACADIA PHARMACEUTICALS INC., priority 2005, published 2008).
Values belong to the molecule of their own block, whether it stands above or below them.

Assays:
[1] = system: NSA mice; test: Hypothermia study (block of CP 55,940-induced hypothermia); assay type: in vivo; set-up: Hypothermia 3 mg/kg / Hypothermia 0.3 mg/kg: unit not given here; conditions: for Hypothermia ID50: block of CP 55,940-induced hypothermia
Protocol: . […] Core body temperatures were then obtained at various time points following CP 55,940 administration. Core body temperature (to the nearest 0.1° C.) was obtained by rectal probe.

[2] = Clearance study, liver microsomes (rats); conditions: rat, pH 7.4
[3] = Clearance study, liver microsomes (human); conditions: pH 7.4

SMILES: O=C(NC1CCC(F)(F)CC1)c1ccc2c(c1)N=C(c1cccc(Cl)c1)c1ccccc1S2 [drawing 1604]
- Hypothermia 0.3 mg/kg [1]: 5

SMILES: C[C@@H]1CCC[C@H](C)N1NC(=O)c1ccc2c(c1)N=C(c1cccc(Cl)c1)c1ccccc1S2 [drawing 1605]
- Hypothermia 3 mg/kg [1]: −2

SMILES: O=C(NCCCC(F)(F)F)c1ccc2c(c1)N=C(c1cccc(F)c1)c1ccccc1S2 [drawing 1606]
- Hypothermia 0.3 mg/kg [1]: 11

SMILES: CCCCNC(=O)c1cnc2c(n1)N=C(c1ccccc1)c1ccccc1S2 [drawing 1607]
- Hypothermia 3 mg/kg [1]: 7

SMILES: O=C(NC1CCC(F)(F)CC1)c1ccc2c(c1)N=C(c1cccc(F)c1)c1ccccc1S2 [drawing 1608]
- Hypothermia 3 mg/kg [1]: 46

SMILES: O=C(NCCc1ccncc1)c1ccc2c(c1)N=C(c1ccc(Cl)s1)c1ccccc1S2 [drawing 1609]
- Hypothermia 3 mg/kg [1]: 67

SMILES: Cc1csc(CNC(=O)c2ccc3c(c2)N=C(c2sccc2C)c2ccccc2S3)c1 [drawing 1610]
- Hypothermia 3 mg/kg [1]: −2

SMILES: O=C(NCc1cccnc1)c1ccc2c(c1)N=C(c1ccc(F)cc1)c1ccccc1S2 [drawing 1611]
- Hypothermia 0.3 mg/kg [1]: 11
- Hypothermia 3 mg/kg [1]: 28

SMILES: O=C(NCc1cccs1)c1ccc2c(c1)N=C(c1ccc(Cl)s1)c1ccccc1S2 [drawing 1612]
- Hypothermia 3 mg/kg [1]: 47

SMILES: O=C(NCc1cccnc1)c1ccc2c(c1)N=C(c1ccc(Br)cc1)c1ccccc1S2 [drawing 1613]
- Hypothermia 3 mg/kg [1]: 2

SMILES: O=C(NCc1cccc(Cl)c1)c1ccc2c(c1)N=C(c1ccc(Cl)cc1)c1ccccc1S2 [drawing 1614]
- Hypothermia 3 mg/kg [1]: −16

SMILES: Cc1ccsc1C1=Nc2cc(C(=O)NN3CCCCC3)ccc2Sc2ccccc21 [drawing 1615]
- Hypothermia 3 mg/kg [1]: 31

SMILES: Cc1csc(CNC(=O)c2ccc3c(c2)N=C(c2cccc(C)n2)c2ccccc2S3)c1 [drawing 1616]
- Hypothermia 0.3 mg/kg [1]: 42
- Hypothermia 3 mg/kg [1]: 54
- Hypothermia ID50 [1]: 1.8 mg/kg

SMILES: CCCCNC(=O)c1ccc2c(c1)N=C(c1ccc(Cl)cc1)c1ccc(Cl)cc1S2 [drawing 1617]
- Hypothermia 3 mg/kg [1]: 30

SMILES: O=C(NCc1cccc(Cl)c1)c1ccc2c(c1)N=C(c1ccc(F)cc1)c1ccccc1S2 [drawing 1618]
- Hypothermia 0.3 mg/kg [1]: 16
- Hypothermia 3 mg/kg [1]: 50

SMILES: CCCCNC(=O)c1ccc2c(c1)N=C(c1ccc(Cl)cc1)c1ccccc1[S+]2[O-] (centres unmarked) [drawing 1619]
- Hypothermia 3 mg/kg [1]: 31

SMILES: O=C(NCc1cccnc1)c1ccc2c(c1)N=C(c1cccc(F)c1)c1ccccc1S2 [drawing 1621]
- Hypothermia 3 mg/kg [1]: 17

SMILES: O=C(NCc1cccs1)c1ccc2c(c1)N=C(c1cccc(Cl)c1)c1ccccc1S2 [drawing 1622]
- Hypothermia 3 mg/kg [1]: 61

SMILES: O=C(NCc1cccs1)c1ccc2c(c1)N=C(c1ccccc1F)c1ccccc1S2 [drawing 1623]
- Hypothermia 3 mg/kg [1]: 10

SMILES: O=C(NCCC(F)(F)F)c1ccc2c(c1)N=C(c1ccc(Cl)s1)c1ccccc1S2 [drawing 1624]
- Hypothermia 3 mg/kg [1]: 37

SMILES: CC(C)CNC(=O)c1ccc2c(c1)N=C(c1ccc(Cl)cn1)c1ccc(F)cc1S2 [drawing 1625]
- Hypothermia 3 mg/kg [1]: 27

SMILES: CCCCNC(=O)c1ccc2c(c1)N=C(c1ccc(Cl)c(F)c1)c1ccccc1S2 [drawing 1626]
- Hypothermia 3 mg/kg [1]: 79

SMILES: CCCCNC(=O)c1ccc2c(c1)N=C(c1ccc(Cl)cn1)c1cc(F)ccc1S2 [drawing 1627]
- Hypothermia 3 mg/kg [1]: 8

SMILES: O=C(NCc1cccs1)c1ccc2c(c1)N=C(c1ccc(Cl)cc1)c1ccccc1S2 [drawing 1628]
- Hypothermia 3 mg/kg [1]: 92
- Hypothermia ID50 [1]: 0.9 mg/kg

SMILES: CCCCNC(=O)c1ccc2c(c1)N=C(c1ccc(F)cn1)c1ccccc1S2 [drawing 1629]
- Hypothermia 3 mg/kg [1]: 54

SMILES: O=C(NCc1ccc(F)cc1)c1ccc2c(c1)N=C(c1ccc(Cl)cc1)c1ccccc1S2 [drawing 1630]
- Hypothermia 0.3 mg/kg [1]: 18
- Hypothermia 3 mg/kg [1]: 83
- Hypothermia ID50 [1]: 1.8 mg/kg

SMILES: O=C(NCc1ccco1)c1ccc2c(c1)N=C(c1cccc(F)c1)c1ccccc1S2 [drawing 1631]
- Hypothermia 3 mg/kg [1]: 21

SMILES: O=C(NC1CCCCC1)c1ccc2c(c1)N=C(c1cccc(F)c1)c1ccccc1S2 [drawing 1632]
- Hypothermia 3 mg/kg [1]: 44

SMILES: O=C(NCc1cccnc1)c1ccc2c(c1)N=C(c1ccc(Cl)cc1)c1ccccc1S2 [drawing 1633]
- Hypothermia 3 mg/kg [1]: 27

SMILES: CC(C)CNC(=O)c1ccc2c(c1)N=C(c1ccc(Cl)cc1)c1ccccc1S2 [drawing 1634]
- Hypothermia 0.3 mg/kg [1]: 25
- Hypothermia 3 mg/kg [1]: 79

SMILES: C[C@@H]1CCC[C@H](C)N1NC(=O)c1ccc2c(c1)N=C(c1cccc(F)c1)c1ccccc1S2 [drawing 1635]
- Hypothermia 3 mg/kg [1]: 17

SMILES: CC(C)CNC(=O)c1ccc2c(c1)N=C(c1ccc(F)cc1)c1ccccc1S2 [drawing 1636]
- Hypothermia 0.3 mg/kg [1]: 14
- Hypothermia 3 mg/kg [1]: 53

SMILES: O=C(NCc1ccccn1)c1ccc2c(c1)N=C(c1ccc(Cl)cc1)c1ccccc1S2 [drawing 1637]
- Hypothermia 3 mg/kg [1]: 42

SMILES: O=C(NCc1ccccc1)c1ccc2c(c1)N=C(c1cccc(Cl)c1)c1ccccc1S2 [drawing 1638]
- Hypothermia 3 mg/kg [1]: 27

SMILES: Cc1ccsc1C1=Nc2cc(C(=O)NCc3ccco3)ccc2Sc2ccccc21 [drawing 1639]
- Hypothermia 3 mg/kg [1]: 30

SMILES: O=C(NCc1ccc(F)cc1)c1ccc2c(c1)N=C(C1CCCCC1)c1ccccc1S2 [drawing 1640]
- Hypothermia 0.3 mg/kg [1]: 24
- Hypothermia 3 mg/kg [1]: 80
- Hypothermia ID50 [1]: 1.5 mg/kg

SMILES: O=C(NCc1cccnc1)c1ccc2c(c1)N=C(c1cccc(Br)c1)c1ccccc1S2 [drawing 1641]
- Hypothermia 0.3 mg/kg [1]: 0
- Hypothermia 3 mg/kg [1]: 56

SMILES: Cc1ccsc1C1=Nc2cc(C(=O)NCc3cccs3)ccc2Sc2ccccc21 [drawing 1642]
- Hypothermia 3 mg/kg [1]: 25

SMILES: O=C(NCCc1cccnc1)c1ccc2c(c1)N=C(c1cccc(Cl)c1)c1ccccc1S2 [drawing 1643]
- Hypothermia 3 mg/kg [1]: 41

SMILES: CC(C)CNC(=O)c1ccc2c(c1)N=C(c1ccc(Cl)s1)c1ccc(F)cc1S2 [drawing 1644]
- Hypothermia 3 mg/kg [1]: 12

SMILES: O=C(NCc1ccc(F)cc1)c1ccc2c(c1)N=C(c1ccc(Cl)cc1)c1ccccc1[S+]2[O-] (centres unmarked) [drawing 1645]
- Hypothermia 3 mg/kg [1]: 22

SMILES: CC(C)CNC(=O)c1ccc2c(c1)N=C(c1cccc(Cl)c1)c1ccccc1S2 [drawing 1646]
- Hypothermia 3 mg/kg [1]: 54

SMILES: O=C(NCc1ccccc1)c1ccc2c(c1)N=C(c1ccc(Cl)cc1)c1ccccc1S2 [drawing 1648]
- Hypothermia 3 mg/kg [1]: 68

SMILES: CC(C)CCNC(=O)c1ccc2c(c1)N=C(c1ccccn1)c1ccccc1S2 [drawing 1649]
- Hypothermia 3 mg/kg [1]: 21

SMILES: O=C(NCc1ccco1)c1ccc2c(c1)N=C(c1ccc(Cl)cc1)c1ccccc1S2 [drawing 1650]
- Hypothermia 0.3 mg/kg [1]: 28
- Hypothermia 3 mg/kg [1]: 79
- Hypothermia ID50 [1]: 0.9 mg/kg

SMILES: O=C(NN1CCCCC1)c1ccc2c(c1)N=C(c1ccc(Cl)cn1)c1ccccc1S2 [drawing 1651]
- Hypothermia 3 mg/kg [1]: 57

SMILES: O=C(NCc1cccc(Cl)c1)c1ccc2c(c1)N=C(N1CCC(F)(F)CC1)c1ccccc1S2 [drawing 1652]
- Hypothermia 0.3 mg/kg [1]: −31
- Hypothermia 3 mg/kg [1]: 19

- microsomal CLint at 1 μM [2]: 105 µL/min/mg
- microsomal CLint at 1 μM [3]: 14 µL/min/mg
SMILES: O=C(NCCCC(F)(F)F)c1ccc2c(c1)N=C(c1ccc(Cl)cc1F)c1ccccc1S2 [drawing 1653]

- microsomal CLint at 1 μM [2]: 136 µL/min/mg
- microsomal CLint at 1 μM [3]: 31 µL/min/mg
SMILES: O=C(NCCCC(F)(F)F)c1ccc2c(c1)N=C(c1ccc(Cl)s1)c1ccccc1S2 [drawing 1655]

- microsomal CLint at 1 μM [2]: 63 µL/min/mg
- microsomal CLint at 1 μM [3]: 11 µL/min/mg
SMILES: CC(C)CNC(=O)c1ccc2c(c1)N=C(c1ccc(Cl)cc1)c1ccc(F)cc1S2 [drawing 1657]

- microsomal CLint at 1 μM [2]: 79 µL/min/mg
- microsomal CLint at 1 μM [3]: 9 µL/min/mg
SMILES: CCCCNC(=O)c1ccc2c(c1)N=C(c1ccc(Cl)cc1)c1ccc(F)cc1S2 [drawing 1663]

- microsomal CLint at 1 μM [2]: 144 µL/min/mg
- microsomal CLint at 1 μM [3]: 24 µL/min/mg
SMILES: COc1cccc(C2=Nc3cc(C(=O)NCCCC(F)(F)F)ccc3Sc3ccccc32)n1 [drawing 1667]

- microsomal CLint at 1 μM [2]: 63 µL/min/mg
- microsomal CLint at 1 μM [3]: 22 µL/min/mg
SMILES: CCCCNC(=O)c1ccc2c(c1)N=C(c1ccc(Cl)s1)c1cc(Cl)ccc1S2 [drawing 1678]

- microsomal CLint at 1 μM [2]: 56 µL/min/mg
- microsomal CLint at 1 μM [3]: 5 µL/min/mg
SMILES: CC(C)CNC(=O)c1ccc2c(c1)N=C(c1ccc(Cl)s1)c1ccc(Cl)cc1S2 [drawing 1679]

- microsomal CLint at 1 μM [2]: 63 µL/min/mg
- microsomal CLint at 1 μM [3]: 16 µL/min/mg
SMILES: CCCCNC(=O)c1ccc2c(c1)N=C(c1cccc(Cl)c1)c1cc(F)ccc1S2 [drawing 1682]

- microsomal CLint at 1 μM [2]: 52 µL/min/mg
- microsomal CLint at 1 μM [3]: 13 µL/min/mg
SMILES: CCCCNC(=O)c1ccc2c(c1)N=C(c1ccc(Cl)cc1)c1cc(Cl)ccc1S2 [drawing 1688]

- microsomal CLint at 1 μM [2]: 204 µL/min/mg
- microsomal CLint at 1 μM [3]: 35 µL/min/mg
SMILES: Cc1cccc(C2=Nc3cc(C(=O)NCC(C)C)ccc3Sc3ccccc32)n1 [drawing 1692]

- microsomal CLint at 1 μM [2]: 55 µL/min/mg
- microsomal CLint at 1 μM [3]: 15 µL/min/mg
SMILES: CCCCNC(=O)c1ccc2c(c1)N=C(c1ccc(Cl)s1)c1ccc(Cl)cc1S2 [drawing 1694]

- microsomal CLint at 1 μM [2]: 39 µL/min/mg
- microsomal CLint at 1 μM [3]: 21 µL/min/mg
SMILES: O=C(NNCC(F)(F)F)c1ccc2c(c1)N=C(c1ccc(Cl)cc1)c1ccccc1S2 [drawing 1696]

- microsomal CLint at 1 μM [2]: 124 µL/min/mg
- microsomal CLint at 1 μM [3]: 30 µL/min/mg
SMILES: Cc1ccc(CNC(=O)c2ccc3c(c2)N=C(c2ccc(Cl)s2)c2ccccc2S3)o1 [drawing 1697]

- microsomal CLint at 1 μM [2]: 210 µL/min/mg
- microsomal CLint at 1 μM [3]: 157 µL/min/mg
SMILES: CCN(CCNC(=O)c1ccc2c(c1)N=C(c1ccc(Cl)cc1)c1ccccc1S2)c1ccccc1 [drawing 1698]

- microsomal CLint at 1 μM [2]: 158 µL/min/mg
- microsomal CLint at 1 μM [3]: 20 µL/min/mg
SMILES: O=C(NC1CCC(F)(F)CC1)c1ccc2c(c1)N=C(c1ccc(Cl)s1)c1ccccc1S2 [drawing 1699]

- microsomal CLint at 1 μM [2]: 297 µL/min/mg
- microsomal CLint at 1 μM [3]: 379 µL/min/mg
SMILES: Cc1ccsc1C1=Nc2cc(C(=O)NCCCC(F)(F)F)ccc2Sc2ccccc21 [drawing 1701]

- microsomal CLint at 1 μM [2]: 74 µL/min/mg
- microsomal CLint at 1 μM [3]: 12 µL/min/mg
SMILES: CCCCNC(=O)c1ccc2c(c1)N=C(c1ccc(Cl)cc1)c1cc(F)ccc1S2 [drawing 1702]

- microsomal CLint at 1 μM [2]: 86 µL/min/mg
- microsomal CLint at 1 μM [3]: 13 µL/min/mg
SMILES: O=C(NCCCC(F)(F)F)c1ccc2c(c1)N=C(c1ccc(Cl)cc1)c1ccccc1S2 [drawing 1703]
